Experimental data from patent US20260070945A1, “MACROCYCLIC IMMUNOMODULATORS” (Bristol-Myers Squibb Company, priority 2022, published 2026).
pIC50: −log10 of the molar value. *1 amine or outer side, *2 acyl side, *3 side chain or, on linkers, in order; H or OH if unused. Where a SMILES comes first, the peptide text is derived from it. Bridges are numbered along the chain shown (N, C = ends). [ ]: non-standard residue; d: D form. The star is where a group is joined. ξ: configuration not given here. X5 = O=C([C@H](Cc1ccc(-c2cc(F)c(F)c(F)c2)cc1)N[*:1])[*:2]; Phe(3-CF3) = N[C@@H](Cc1cccc(C(F)(F)F)c1)C(=O)O; Ala(morpholin-4-yl) = N[C@@H](CN1CCOCC1)C(=O)O; Phe(4-COOH) = N[C@@H](Cc1ccc(C(=O)O)cc1)C(=O)O; Bip = N[C@@H](Cc1ccc(-c2ccccc2)cc1)C(=O)O; Phe(3-Me) = Cc1cccc(C[C@H](N)C(=O)O)c1; βAsp = O=C(O)[C@H](CC(=O)[*:2])N[*:1]; NH(CH2)12COOH = O=C(O)CCCCCCCCCCCCN*; Val(3-OH) = CC(C)(O)[C@H](N)C(=O)O; hArg = N=C(N)NCCCC[C@H](N)C(=O)O; 4Pal = N[C@@H](Cc1ccncc1)C(=O)O; Aad = N[C@@H](CCCC(=O)O)C(=O)O; Cha = N[C@@H](CC1CCCCC1)C(=O)O; Cit = NC(=O)NCCC[C@H](N)C(=O)O; Thr(3ξ) = CC(O)[C@H](N)C(=O)O; 12Ado = NCCCCCCCCCCCC(=O)O; Carboxymethyl = O=C(O)C*; NMeA = CN[C@@H](C)C(=O)O; Aun = NCCCCCCCCCCC(=O)O; Dab = NCC[C@H](N)C(=O)O; Dap = NC[C@H](N)C(=O)O; AEEA = NCCOCCOCC(=O)O

target: T1, PD-1/PD-L1 interaction (PE-labeled human PD-L1-Ig binding to Jurkat cell line over-expressing human PD-1) (Homo sapiens, UniProt Q15116); assay: Jurkat-PD-1 Cell Binding High-Content Screening Assay (CBA); conditions: Jurkat-hPD-1 cells, PE-labeled PD-L1-Ig 20 nM final; read-out: Jurkat HPD1 PDL1 IC50
T1 construct: expressed in transfected cells; host or cells: Jurkat
T1 sequence (Q15116 25-288): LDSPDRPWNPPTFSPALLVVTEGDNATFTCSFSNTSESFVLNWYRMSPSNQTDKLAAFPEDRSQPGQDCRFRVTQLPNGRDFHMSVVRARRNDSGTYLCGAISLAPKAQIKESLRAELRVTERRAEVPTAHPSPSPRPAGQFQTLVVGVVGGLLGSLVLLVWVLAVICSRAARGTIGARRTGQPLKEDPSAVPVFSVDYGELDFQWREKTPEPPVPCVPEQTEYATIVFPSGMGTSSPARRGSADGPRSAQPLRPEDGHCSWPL
In short: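 Jurkat-hPD-1 cells (8×10^3/well) in DMEM with 10% fetal calf serum were preincubated with compound for 2 h at 37 °C. PE-labeled PD-L1-Ig was then added at 20 nM final for 1 h. Cells were fixed in paraformaldehyde with Hoechst 33342, washed and imaged by high-content imaging.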

| pIC50 | Compound |
| --- | --- |
| 7.99 | CC(=O)NCCCC[C@@H]1NC(=O)[C@H](Cc2ccc(-c3ccccc3)cc2)NC(=O)[C@H](C(C)C)NC(=O)[C@H](Cc2cccc(C)c2)NC(=O)[C@H](CC(=O)O)NC(=O)[C@H](Cc2ccc(C(=O)O)cc2)NC(=O)[C@H](Cc2ccc(OCC(=O)O)cc2)NC(=O)CSC[C@@H](C(=O)NCCOCCOCC(=O)NCCCCCCCCCCC(=O)O)NC(=O)[C@H](CCCNC(N)=O)NC(=O)[C@H](C(C)C)NC(=O)[C@H](CC2CCCCC2)NC(=O)[C@H](CCN)NC(=O)[C@@H](CC(C)C)NC(=O)[C@H](C)N(C)C1=O [Example 2295] ({CH2CO}-Y(Carboxymethyl)[Phe(4-COOH)]D[Phe(3-Me)]V[Bip]K(Ac)[NMeA][dL][Dab][Cha]V[Cit]C[AEEA][Aun]-OH; thioether N-14) |
| 7.84 | Cc1cccc(C[C@@H]2NC(=O)[C@H](CC(=O)O)NC(=O)[C@H](Cc3ccc(OCC(=O)O)cc3)NC(=O)[C@H](C(C)O)NC(=O)CSC[C@@H](C(=O)N[C@@H](CCN)C(=O)NCCOCCOCC(=O)NCCCCCCCCCCC(=O)O)NC(=O)[C@H](CCCC(=O)O)NC(=O)[C@H](C(C)C)NC(=O)[C@H](CC3CCCCC3)NC(=O)[C@H](CCN)NC(=O)[C@@H](CC(C)C)NC(=O)[C@H](C)N(C)C(=O)[C@H](Cc3ccc(OCC(=O)O)cc3)NC(=O)[C@H](Cc3ccc(-c4ccccc4)cc3)NC(=O)[C@H](Cc3ccc(C(=O)O)cc3)NC2=O)c1 (stereo partly drawn) [Example 2476] ({CH2CO}-[Thr(3ξ)]Y(Carboxymethyl)D[Phe(3-Me)][Phe(4-COOH)][Bip]Y(Carboxymethyl)[NMeA][dL][Dab][Cha]V[Aad]C[Dab][AEEA][Aun]-OH; thioether N-14) |
| 7.13 | Cc1cccc(C[C@@H]2NC(=O)[C@H](CC(=O)O)NC(=O)[C@H](Cc3ccc(OCC(=O)O)cc3)NC(=O)[C@H](CCCNC(=N)N)NC(=O)CSC[C@@H](C(=O)NCCOCCOCC(=O)NCCCCCCCCCCC(=O)O)NC(=O)[C@H](C(C)O)NC(=O)[C@H](C(C)C)NC(=O)[C@H](CC3CCCCC3)NC(=O)[C@H](CCN)NC(=O)[C@@H](CC(C)C)NC(=O)[C@H](C)N(C)C(=O)[C@H](Cc3ccc(OCC(=O)O)cc3)NC(=O)[C@H](Cc3ccc(-c4ccccc4)cc3)NC(=O)[C@H](Cc3ccc(OCC(=O)O)cc3)NC2=O)c1 (stereo partly drawn) [Example 2342] ({CH2CO}-RY(Carboxymethyl)D[Phe(3-Me)]Y(Carboxymethyl)[Bip]Y(Carboxymethyl)[NMeA][dL][Dab][Cha]V[Thr(3ξ)]C[AEEA][Aun]-OH; thioether N-14) |

The remaining lines, values behind:

| Compound | pIC50 |
| --- | --- |
| CC(C)C[C@H]1NC(=O)[C@H](C)N(C)C(=O)[C@H](Cc2ccc(OCC(=O)O)cc2)NC(=O)[C@H](Cc2ccc(-c3cc(F)c(F)c(F)c3)cc2)NC(=O)[C@H](Cc2ccc(C(=O)O)cc2)NC(=O)[C@H](Cc2cccc(C(F)(F)F)c2)NC(=O)[C@H](CC(=O)O)NC(=O)[C@H](Cc2ccc(OCC(=O)O)cc2)NC(=O)[C@H]([C@@H](C)O)NC(=O)CSC[C@@H](C(=O)N[C@@H](CCN)C(=O)NCCCCCCCCCCC(=O)O)NC(=O)[C@H]([C@@H](C)O)NC(=O)[C@H](C(C)C)NC(=O)[C@H](CC2CCCCC2)NC(=O)[C@H](CCN)NC1=O [Example 1237] ({CH2CO}-TY(Carboxymethyl)D[Phe(3-CF3)][Phe(4-COOH)][X5]Y(Carboxymethyl)[NMeA][dL][Dab][Cha]VTC[Dab][Aun]-OH; thioether N-14) | 6.74 |
| CC(C)C[C@@H]1NC(=O)[C@H](Cc2c[nH]c3ccccc23)NC(=O)[C@H](CC(=O)O)NC(=O)[C@H](Cc2ccc(OCC(=O)O)cc2)NC(=O)[C@H](CCCCNC(=N)N)NC(=O)CSC[C@@H](C(=O)NCC(=O)NCCOCCOCC(=O)N[C@@H](CCN)C(=O)NCCCCCCCCCCC(=O)O)NC(=O)[C@H](CCCNC(N)=O)NC(=O)[C@H](C(C)C)NC(=O)[C@H](CC2CCCCC2)NC(=O)[C@H](CCN)NC(=O)[C@@H](CC(C)C)NC(=O)[C@H](C)N(C)C(=O)[C@H](C(C)C)NC(=O)[C@H](Cc2ccc(-c3ccccc3)cc2)NC1=O [Example 2179] ({CH2CO}-[hArg]Y(Carboxymethyl)DWL[Bip]V[NMeA][dL][Dab][Cha]V[Cit]CG[AEEA][Dab][Aun]-OH; thioether N-14) | 7.95 |
| CC(C)C[C@@H]1NC(=O)[C@H](Cc2c[nH]c3ccccc23)NC(=O)[C@H](CC(=O)O)NC(=O)[C@H](Cc2ccc(C(=O)O)cc2)NC(=O)[C@H](Cc2ccc(OCC(=O)O)cc2)NC(=O)CSC[C@@H](C(=O)N[C@@H](CCN)C(=O)NCCOCCOCC(=O)NCCCCCCCCCCC(=O)O)NC(=O)[C@H](CCCNC(N)=O)NC(=O)[C@H](C(C)(C)O)NC(=O)[C@H](CC2CCCCC2)NC(=O)[C@H](CCN)NC(=O)[C@@H](CC(C)C)NC(=O)[C@H](C)N(C)C(=O)[C@H](C(C)C)NC(=O)[C@H](Cc2ccc(-c3ccccc3)cc2)NC1=O [Example 1122] ({CH2CO}-Y(Carboxymethyl)[Phe(4-COOH)]DWL[Bip]V[NMeA][dL][Dab][Cha][Val(3-OH)][Cit]C[Dab][AEEA][Aun]-OH; thioether N-14) | 8.42 |
| CC(C)C[C@@H]1NC(=O)[C@H](Cc2c[nH]c3ccccc23)NC(=O)[C@H](CC(=O)O)NC(=O)[C@H](Cc2ccncc2)NC(=O)[C@H](Cc2ccc(OCC(=O)O)cc2)NC(=O)CSC[C@@H](C(=O)N[C@@H](Cc2c[nH]cn2)C(=O)NCCCCCCCCCCC(=O)O)NC(=O)[C@H](CO)NC(=O)[C@H](C(C)C)NC(=O)[C@H](CC2CCCCC2)NC(=O)[C@H](CCN)NC(=O)[C@@H](CC(C)C)NC(=O)[C@H](C)N(C)C(=O)[C@H](C(C)C)NC(=O)[C@H](Cc2ccc(-c3ccccc3)cc2)NC1=O [Example 1087] ({CH2CO}-Y(Carboxymethyl)[4Pal]DWL[Bip]V[NMeA][dL][Dab][Cha]VSCH[Aun]-OH; thioether N-14) | 7.48 |
| CC(C)C[C@H]1NC(=O)[C@H](C)N(C)C(=O)[C@H](Cc2ccc(C(=O)O)cc2)NC(=O)[C@H](Cc2ccc(-c3ccccc3)cc2)NC(=O)[C@H](Cc2ccc(C(=O)O)cc2)NC(=O)[C@H](Cc2cccc(C(F)(F)F)c2)NC(=O)[C@H](CC(=O)O)NC(=O)[C@H](Cc2ccc(OCC(=O)O)cc2)NC(=O)[C@H](CN2CCOCC2)NC(=O)CSC[C@@H](C(=O)N[C@@H](CCN)C(=O)NCCCCCCCCCCCCC(=O)O)NC(=O)[C@H](CCC(=O)O)NC(=O)[C@H](C(C)C)NC(=O)[C@H](CC2CCCCC2)NC(=O)[C@H](CCN)NC1=O [Example 1198] ({CH2CO}-[Ala(morpholin-4-yl)]Y(Carboxymethyl)D[Phe(3-CF3)][Phe(4-COOH)][Bip][Phe(4-COOH)][NMeA][dL][Dab][Cha]VEC[Dab]-{NH(CH2)12COOH}; thioether N-14) | 7.71 |
| CC(C)C[C@@H]1NC(=O)[C@H](Cc2c[nH]c3ccccc23)NC(=O)[C@H](CC(=O)O)NC(=O)[C@H](Cc2ccc(C(=O)O)cc2)NC(=O)[C@H](Cc2ccc(OCC(=O)O)cc2)NC(=O)CSC[C@@H](C(=O)N[C@@H](CCCCN)C(=O)NCCCCCCCCCCC(=O)O)NC(=O)[C@H](CN)NC(=O)[C@H](C(C)C)NC(=O)[C@H](CC2CCCCC2)NC(=O)[C@H](CCN)NC(=O)[C@@H](CC(C)C)NC(=O)[C@H](C)N(C)C(=O)[C@H](C(C)C)NC(=O)[C@H](Cc2ccc(-c3ccccc3)cc2)NC1=O [Example 1348] ({CH2CO}-Y(Carboxymethyl)[Phe(4-COOH)]DWL[Bip]V[NMeA][dL][Dab][Cha]V[Dap]CK[Aun]-OH; thioether N-14) | 7.40 |
| CC(C)C[C@@H]1NC(=O)[C@H](Cc2c[nH]c3ccccc23)NC(=O)[C@H](CC(=O)O)NC(=O)[C@H](Cc2ccc(OCC(=O)O)cc2)NC(=O)[C@H](CCCNC(N)=O)NC(=O)CSC[C@@H](C(=O)N[C@@H](CC(N)=O)C(=O)N[C@@H](CC(=O)NCCOCCOCC(=O)NCCCCCCCCCCC(=O)O)C(=O)O)NC(=O)[C@H](CO)NC(=O)[C@H](C(C)C)NC(=O)[C@H](CC2CCCCC2)NC(=O)[C@H](CC(N)=O)NC(=O)[C@@H](CC(C)C)NC(=O)[C@H](C)N(C)C(=O)[C@H](C(C)C)NC(=O)[C@H](Cc2ccc(-c3ccccc3)cc2)NC1=O [Example 2026] ({CH2CO}-[Cit]Y(Carboxymethyl)DWL[Bip]V[NMeA][dL]N[Cha]VSCN[βAsp][AEEA][Aun]-OH; thioether N-14) | 6.62 |

same assay, conditions: PE-labeled PD-L1-Ig 20 nM final, Jurkat-hPD-1 cells; read-out: Jurkat HPD1 PDL1 IC50

| pIC50 | Compound |
| --- | --- |
| 7.78 | Cc1cccc(C[C@@H]2NC(=O)[C@H](CC(=O)O)NC(=O)[C@H](Cc3ccc(C(=O)O)cc3)NC(=O)[C@H](C(C)O)NC(=O)CSC[C@@H](C(=O)N[C@@H](CCN)C(=O)NCCCCCCCCCCCCC(=O)O)NC(=O)[C@H](CO)NC(=O)[C@H](C(C)(C)O)NC(=O)[C@H](CC3CCCCC3)NC(=O)[C@H](CCN)NC(=O)[C@@H](CC(C)C)NC(=O)[C@H](C)N(C)C(=O)[C@H](CCCNC(=N)N)NC(=O)[C@H](Cc3ccc(-c4ccccc4)cc3)NC(=O)[C@H](Cc3ccc(C(=O)O)cc3)NC2=O)c1 (stereo partly drawn) [Example 2644] ({CH2CO}-[Thr(3ξ)][Phe(4-COOH)]D[Phe(3-Me)][Phe(4-COOH)][Bip]R[NMeA][dL][Dab][Cha][Val(3-OH)]SC[Dab]-{NH(CH2)12COOH}; thioether N-14) |
| 7.67 | Cc1cccc(C[C@@H]2NC(=O)[C@H](CC(=O)O)NC(=O)[C@H](Cc3ccc(OCC(=O)O)cc3)NC(=O)[C@H]([C@@H](C)O)NC(=O)CSC[C@@H](C(=O)N[C@@H](CCN)C(=O)NCCOCCOCC(=O)NCCCCCCCCCCCC(=O)O)NC(=O)[C@H](Cc3ccc(-c4ccccc4)cc3)NC(=O)[C@H](C(C)C)NC(=O)[C@H](CC3CCCCC3)NC(=O)[C@H](CCN)NC(=O)[C@@H](CC(C)C)NC(=O)[C@H](C)N(C)C(=O)[C@H](Cc3ccc(OCC(=O)O)cc3)NC(=O)[C@H](Cc3ccc(-c4ccccc4)cc3)NC(=O)[C@H](Cc3ccc(OCC(=O)O)cc3)NC2=O)c1 [Example 2674] ({CH2CO}-TY(Carboxymethyl)D[Phe(3-Me)]Y(Carboxymethyl)[Bip]Y(Carboxymethyl)[NMeA][dL][Dab][Cha]V[Bip]C[Dab][AEEA][12Ado]-OH; thioether N-14) |
